We go through two compounds from patent US20220106304A1, “Transcription Factor BRN2 Inhibitory Compounds as Therapeutics and Methods for Their Use” (The University of British Columbia, priority 2018, published 2022).

pIC50: −log10 of the molar value.

For one data set, the target named is T1, BRN2 (Homo sapiens, UniProt P20265).
T1 sequence (P20265 1-443): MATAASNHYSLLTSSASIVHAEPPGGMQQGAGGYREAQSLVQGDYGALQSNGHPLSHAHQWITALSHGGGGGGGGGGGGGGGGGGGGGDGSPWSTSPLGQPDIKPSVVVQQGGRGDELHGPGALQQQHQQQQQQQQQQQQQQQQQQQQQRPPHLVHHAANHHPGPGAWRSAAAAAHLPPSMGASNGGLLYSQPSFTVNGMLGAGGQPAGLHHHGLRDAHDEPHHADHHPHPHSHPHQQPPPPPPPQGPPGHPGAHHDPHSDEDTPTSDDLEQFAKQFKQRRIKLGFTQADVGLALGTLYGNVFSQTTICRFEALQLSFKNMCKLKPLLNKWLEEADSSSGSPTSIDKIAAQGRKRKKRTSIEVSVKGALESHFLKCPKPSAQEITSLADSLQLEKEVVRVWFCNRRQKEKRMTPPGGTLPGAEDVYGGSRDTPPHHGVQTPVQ
The experiment in a line: cell-based. The conditions noted are these: negative = activation; for inhibition at 10 µM: read-out: % BRN2 Inhibition (10 μM), 10 μM compound, 24 hours, 42D^ENZR cells stably expressing BRN2-luciferase reporter; for inhibition at 30 µM: read-out: % BRN2 Inhibition (30 μM), 30 μM compound, 24 hours, 42D^ENZR cells stably expressing BRN2-luciferase reporter.

A short description of data set [1]: Liver microsome metabolic stability, HLM. The conditions noted are these: HLM (first of two values), 1 μM compound, 0.25 mg/mL protein. The class given is in vitro ADME. The method, then: Potassium phosphate buffer (Kphos) was prepared by adding 0.647 g potassium phosphate monobasic (KH2PO4) and 3.527 g potassium phosphate dibasic ([…]) to 400 mL of Milli-Q water. pH of the buffer was adjusted to 7.4 and volume was made up to 500 mL.
Microsomes (20 mg/mL) were diluted in KH2PO4 buffer to prepare a concentration of 0.357 mg/mL.
Stock solutions of BRN2 inhibitors were prepared in DMSO at a concentration of 1 mM
A stock solution of 3.33 mM NADPH (3.33×) was prepared by dissolving appropriate amount of NADPH in KH2PO4 buffer.
Total Incubation volume: 100 μL
Compound concentration: 1 μM
Protein Concentration: 0.25 mg/mL
An 1120 μL aliquot of Kphos buffer (50 mM, pH 7.4) containing liver microsomes (0.357 mg/mL) were added to individual 2 mL tubes (final concentration 0.25 mg/mL). Test compounds (1 mM) and positive controls were directly spiked into respective tubes to prepare a concentration of 1.428 μM (final concentration 1 μM). From the above mix, 70 μL was added to individual wells of 96 well reaction plates and pre-incubated in a 37° C. water bath for 5 min. All the reactions were initiated by adding 30 μL of 3.33 mM NADPH (final concentration 1 mM). Reactions without NADPH and buffer controls (minus NADPH) at 0 min and 60 min were also incubated to rule out non-NADPH metabolism or chemical instability in the incubation buffer. All reactions were terminated using 100 μL of ice-cold acetonitrile containing internal standard at 0, 5, 15, 30 and 60 min. The plates were centrifuged at 4000 RPM for 15 min and 100 μL aliquots were submitted for analysis by LC-MS/MS.
Samples were monitored for parent compounds disappearance in MRM mode using LC-MS/MS.
The percent remaining of test compounds and positive control in each sample was determined by considering peak area ratio in the 0 minute sample as 100%. The Half-life of compounds in microsomes is calculated by formula:
Half-life (t½) (min)=0.693/k, where k is gradient of line determined from plot of peak area ratio (compound peak area/internal standard peak area) against time.
In vitro intrinsic clearance (CL'int) (units in mL/min/kg) was calculated using the formula.
[formula] • For liver microsomes, scaling factor used was 45 mg microsomal protein per gm liver. • Indicates liver weight (gm) which varies species wise. For mice the liver weights are 90 gm.
Where data is not available “na” is inserted.

Data set [2] in a line: Liver microsome metabolic stability, MLM. The class given is in vitro ADME. The conditions noted are these: MLM (single value or second of two), 1 μM compound, 0.25 mg/mL protein; for Met Stab % (60 mins HLM/MLM): percent remaining at 60 min, 1 mM NADPH; for half-life at 1 µM: mouse, liver microsomes, pH 7.4, read-out: T1/2 in (mins HLM/MLM). Put shortly: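 Compound (1 μM) incubated at 37 °C with mouse or human liver microsomes (0.25 mg/mL) in 50 mM phosphate pH 7.4 with 1 mM NADPH; samples quenched at 0–60 min. Parent loss by LC-MS/MS gives t½ (0.693/k) and CL'int scaled by 45 mg protein/g liver.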

A further data set has as its system 42D^ENZR cells. The experiment in a line: Cell proliferation (crystal violet), BRN2 expressing 42D^ENZR cells. The data set is classed as cell-based. The conditions noted are these: 42D cells, approximately 72 hours. The protocol:
Plate 42DENZR (˜7000 cells per well) and 16D^CRPC (˜5000 cells per well) cells in 96 well plate with a volume of 100 μL per well. • 2. Next day 1 mL aliquots of media are combined with 3× the desired concentration of compounds. The aliquots are vortexed and 50 μL of each 3× concentration is added to the 100 μL of media in each well to give the ix desired concentration.
The following are the desired concentrations:
0, 10 nM, 100 nM, 500 nM, 1 μM, 2.5 μM, 5 μM, 10 μM, 15 μM, […], 30 μM. • 3. Approximately 72 hours later, 17 μL of 10% Glutaraldehyde is added to each well and plates are placed on a shaker for 20-30 minutes. • 4. Media is washed off the fixed cells by slow submersion in a container of water. Then the water is removed by tapping the plate upside down. • 5. 75 μL of Crystal Violet™ solution is added into the 96 well plates and placed on a shaker for ˜30 minutes. • 6. Media is washed off the fixed cells by repeated slow submersion in a container of water and the plates are allowed to dry over-night. • 7. Next day, 75 μL of Sorensen Solution is accurately pipetted into each well. The plates placed on a shaker for ˜30 minutes. • 8. Absorbance is measured in the plate at 590 nm.

For the compound `FC(F)(F)c1ccc2cc(-c3csc(-c4ccco4)n3)oc2c1` [VPC-18-51, 2-(Furan-2-yl)-4-(6-(trifluoromethyl)benzofuran-2-yl)thiazole], the inhibition at 10 µM on BRN2 was 62.5%. In addition, on BRN2, the inhibition at 30 µM amounted to 71.4%. Besides, the “Met Stab % (60 mins HLM/MLM)” value in data set [1] (percent remaining at 60 min, 1 mM NADPH) turned out to be 42%; in data set [2], 7%. Moreover, the half-life at 1 µM in data set [1] (human, liver microsomes, pH 7.4, read-out: T1/2 in (mins HLM/MLM)) is 45 min; in data set [2], 16 min.
Take `Clc1cc2cc(-c3csc(-c4ccc[nH]4)n3)oc2cc1Cl` [VPC-18-142]: at BRN2, the inhibition at 10 µM was found to be 29.1% and the inhibition at 30 µM stood at 53.6%. Besides, in data set [2], the “Met Stab % (60 mins HLM/MLM)” value stood at 17% and the half-life at 1 µM came to 26 min. The compound further showed a pIC50 in the data set on 42D^ENZR cells of 5.60.
